Test results published in patent publication EP4273147A1, “SUBSTITUTED SPIROLACTAMS, SALTS THEREOF AND THEIR USE AS HERBICIDALLY ACTIVE SUBSTANCES” (Bayer Aktiengesellschaft, priority 2022, dated 2023).

Legend:
VERPE [1] = assay: Herbicidal pre-emergence action, section C (Table C11); type: in vivo, Veronica persica; conditions: application rate 320 g/ha; visual grading after ca. 3 weeks
GLXMA [2] = assay: Pre-emergence effects on crop plants (Table D4); type: in vivo, Glycine max; conditions: crop plant; application rate 320 g/ha; visual grading after ca. 3 weeks
Source text: (§4) Seeds of mono- and dicotyledonous weed plants and crop plants were sown, in plastic or organic planting pots, in sandy loam and covered with soil. The compounds according to the invention, formulated in the form of wettable powders (WP) or as emulsifiable concentrates (EC), were applied to the surface of the covering soil as aqueous suspension or emulsion, with the addition of 0.5% of an additive, at an application rate of 600 1 of water/ha (converted).
(§5) Following treatment, the pots were placed in a greenhouse and kept under optimum growth conditions for the test plants.

ALOMY [3] = assay: Herbicidal pre-emergence action, section C (Table C2); type: in vivo, Alopecurus myosuroides; conditions: application rate 320 g/ha; visual grading after ca. 3 weeks
BRSNW [4] = assay: Post-emergence effects on crop plants (Table F5); type: in vivo, Brassica napus; conditions: application rate 80 g/ha, crop plant BRSNW
Source text: (§1) 2 to 3 weeks after sowing, the test plants were sprayed in the single-leaf stage.

SETVI [5] = assay: Herbicidal post-emergence action (Table B8); type: in vivo, Setaria viridis; conditions: application rate 1280 g/ha
In short: (§2)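 Weed seeds sown in sandy loam in pots (one mono- or dicot species per pot), grown in greenhouse; plants treated post-emergence at one-leaf stage, 2–3 weeks after sowing. After ~3 weeks, damage scored visually vs untreated controls (100% = plants dead, 0% = like controls).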

SETVI [6] = assay: Herbicidal pre-emergence action, section C (Table C10); type: in vivo, Setaria viridis; conditions: visual grading after ca. 3 weeks
MATIN [7] = assay: Herbicidal post-emergence action (Table B6); type: in vivo, Matricaria inodora; conditions: application rate 1280 g/ha; rated visually after about 3 weeks
In short: as §2

MATIN [8] = assay: Herbicidal pre-emergence action (Table A4); type: in vivo, Matricaria inodora; conditions: visual grading after ca. 3 weeks
In short: (§3)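 One monocotyledonous and one dicotyledonous weed species shared each pot. Seeds were sown in sandy loam and covered over with soil.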

SETVI [9] = assay: Herbicidal pre-emergence action (Table A5); type: in vivo, Setaria viridis; conditions: visual grading after ca. 3 weeks
In short: as §3

ABUTH [10] = assay: Herbicidal pre-emergence action, section C (Table C1); type: in vivo, Abutilon theophrasti; conditions: application rate 320 g/ha; visual grading after ca. 3 weeks
ABUTH [11] = assay: Herbicidal pre-emergence action (Table A1); type: in vivo, Abutilon theophrasti; conditions: application rate 1280 g/ha; visual grading after ca. 3 weeks vs untreated controls (100% = plants have died off, 0% = as control plants)
In short: as §3

ZEAMX [12] = assay: Post-emergence effects on crop plants (Table F1); type: in vivo, Zea mays; conditions: application rate 320 g/ha, crop plant ZEAMX
Source text: as §1

POAAN [13] = assay: Herbicidal pre-emergence action (Table A7); type: in vivo, Poa annua; conditions: application rate 320 g/ha; visual grading after ca. 3 weeks
In short: as §3

ECHCG [14] = assay: Herbicidal post-emergence action (Table B3); type: in vivo, Echinochloa crus-galli; conditions: application rate 1280 g/ha; rated visually after about 3 weeks
In short: as §2

TRZAS [15] = assay: Post-emergence effects on crop plants (Table F2); type: in vivo, Triticum aestivum; conditions: application rate 320 g/ha, crop plant TRZAS
Source text: as §1

LOLRI [16] = assay: Herbicidal pre-emergence action, section C (Table C7); type: in vivo, Lolium rigidum; conditions: application rate 320 g/ha; visual grading after ca. 3 weeks
ZEAMX [17] = assay: Pre-emergence effects on crop plants (Table D1); type: in vivo, Zea mays; conditions: crop plant; application rate 320 g/ha; visual grading after ca. 3 weeks
VERPE [18] = assay: Herbicidal pre-emergence action (Table A11); type: in vivo, Veronica persica; conditions: application rate 1280 g/ha; visual grading after ca. 3 weeks
In short: as §3

KCHSC = assay: Herbicidal pre-emergence action (Table A10); type: in vivo, Kochia scoparia; conditions: application rate 320 g/ha; visual grading after ca. 3 weeks
In short: as §3

STEME = assay: Herbicidal pre-emergence action (Table A6); type: in vivo, Stellaria media; conditions: application rate 320 g/ha; visual grading after ca. 3 weeks
In short: as §3

LOLRI [19] = assay: Herbicidal pre-emergence action (Table A3); type: in vivo, Lolium rigidum; conditions: visual grading after ca. 3 weeks
In short: as §3

TRZAS [20] = assay: Pre-emergence effects on crop plants (Table D2); type: in vivo, Triticum aestivum; conditions: crop plant; application rate 80 g/ha; visual grading after ca. 3 weeks
Source text: as §4, §5

LOLRI [21] = assay: Herbicidal post-emergence action (Table B5); type: in vivo, Lolium rigidum; conditions: application rate 1280 g/ha; rated visually after about 3 weeks
Procedure: Seeds of mono- and dicotyledonous weed plants were placed in plastic pots in sandy loam soil (doubly sown with in each case one species of mono- or dicotyledonous weed plants per pot), covered with soil and cultivated in a greenhouse under controlled growth conditions. 2 to 3 weeks after sowing, the test plants were treated at the one-leaf stage. […] After the test plants had been kept in the greenhouse under optimum growth conditions for about 3 weeks, the activity of the preparations was rated visually in comparison to untreated controls. For example, 100% activity = the plants have died, 0% activity = like control plants.

ECHCG [22] = assay: Herbicidal pre-emergence action, section C (Table C6); type: in vivo, Echinochloa crus-galli; conditions: application rate 80 g/ha; visual grading after ca. 3 weeks
ALOMY [23] = assay: Herbicidal post-emergence action, section E (Table E2); type: in vivo, Alopecurus myosuroides; conditions: application rate 320 g/ha; assessed visually after ca. 3 weeks
Source text: as §1

DIGSA [24] = assay: Herbicidal pre-emergence action (Table A12); type: in vivo, Digitaria sanguinalis; conditions: application rate 320 g/ha; visual grading after ca. 3 weeks
In short: as §3

ORYZA [25] = assay: Post-emergence effects on crop plants (Table F3); type: in vivo, Oryza sativa; conditions: application rate 320 g/ha, crop plant ORYZA
Source text: as §1

ECHCG [26] = assay: Herbicidal pre-emergence action (Table A2); type: in vivo, Echinochloa crus-galli; conditions: application rate 1280 g/ha; visual grading after ca. 3 weeks
In short: as §3

DIGSA [27] = assay: Herbicidal pre-emergence action, section C (Table C5); type: in vivo, Digitaria sanguinalis; conditions: application rate 80 g/ha; visual grading after ca. 3 weeks
VIOTR [28] = assay: Herbicidal post-emergence action, section E (Table E10); type: in vivo, Viola tricolor; conditions: application rate 320 g/ha; assessed visually after ca. 3 weeks
Source text: as §1

ORYZA [29] = assay: Pre-emergence effects on crop plants (Table D3); conditions: crop plant; application rate 80 g/ha; visual grading after ca. 3 weeks
AMARE = assay: Herbicidal pre-emergence action (Table A8); type: in vivo, Amaranthus retroflexus; conditions: application rate 1280 g/ha; visual grading after ca. 3 weeks vs untreated controls (100% = plants have died off, 0% = as control plants)
In short: as §3

ECHCG [30] = assay: Herbicidal post-emergence action, section E (Table E5); type: in vivo, Echinochloa crus-galli; conditions: application rate 320 g/ha; assessed visually after ca. 3 weeks
Source text: as §1

ALOMY [31] = assay: Herbicidal pre-emergence action (Table A9); type: in vivo, Alopecurus myosuroides; conditions: application rate 1280 g/ha; visual grading after ca. 3 weeks
In short: as §3

VIOTR [32] = assay: Herbicidal pre-emergence action, section C (Table C12); type: in vivo, Viola tricolor; conditions: application rate 80 g/ha; visual grading after ca. 3 weeks
POLCO = assay: Herbicidal pre-emergence action, section C (Table C9); type: in vivo, Polygonum convolvulus; conditions: application rate 320 g/ha; visual grading after ca. 3 weeks
MATIN [33] = assay: Herbicidal pre-emergence action, section C (Table C8); type: in vivo, Matricaria inodora; conditions: application rate 320 g/ha; visual grading after ca. 3 weeks
BRSNW [34] = assay: Pre-emergence effects on crop plants (Table D5); type: in vivo, Brassica napus; conditions: crop plant; application rate 80 g/ha; visual grading after ca. 3 weeks
GLXMA [35] = assay: Post-emergence effects on crop plants (Table F4); type: in vivo, Glycine max; conditions: application rate 320 g/ha, crop plant GLXMA
Source text: as §1

VERPE [36] = assay: Herbicidal post-emergence action, section E (Table E9); type: in vivo, Veronica persica; conditions: application rate 320 g/ha; assessed visually after ca. 3 weeks
Source text: as §1

POAAN [37] = assay: Herbicidal post-emergence action (Table B7); type: in vivo, Poa annua; conditions: application rate 1280 g/ha
In short: as §2

SMILES | pre-emergence activity against VERPE (VERPE [1]) [%] | pre-emergence activity against GLXMA (GLXMA [2]) [%] | pre-emergence activity against ALOMY (ALOMY [3]) [%] | post-emergence activity against MATIN (MATIN [7]) [%] | post-emergence activity against ZEAMX (ZEAMX [12]) [%] | pre-emergence activity against POAAN (POAAN [13]) [%] | post-emergence activity against ECHCG (ECHCG [14]) [%] | post-emergence activity against TRZAS (TRZAS [15]) [%] | pre-emergence activity against LOLRI (LOLRI [16]) [%] | pre-emergence activity against ZEAMX (ZEAMX [17]) [%] | pre-emergence activity against STEME (STEME) [%] | post-emergence activity against LOLRI (LOLRI [21]) [%] | pre-emergence activity against ECHCG (ECHCG [22]) [%] | pre-emergence activity against DIGSA (DIGSA [24]) [%] | post-emergence activity against ORYZA (ORYZA [25]) [%] | pre-emergence activity against DIGSA (DIGSA [27]) [%] | post-emergence activity against VIOTR (VIOTR [28]) [%] | pre-emergence activity against ORYZA (ORYZA [29]) [%] | pre-emergence activity against ALOMY (ALOMY [31]) [%] | pre-emergence activity against VIOTR (VIOTR [32]) [%] | further results
O=C1N(Cc2ccccc2F)CCC12CCCN(Cc1c(F)cccc1F)C2=O (racemic) [I-024] | 90 | 0 | 90 | 90 | 0 | 100 | 90 | 0 | 90 | 0 | 90 | 90 | 100 | 100 | 0 | 80 | 80 | 0 | 90 | 90 | post-emergence activity against BRSNW (BRSNW [4]): 0%; post-emergence activity against SETVI (SETVI [5]): 90%; pre-emergence activity against SETVI (SETVI [6]; application rate 80 g/ha): 100%; pre-emergence activity against MATIN (MATIN [8]; application rate 320 g/ha): 90%; pre-emergence activity against SETVI (SETVI [9]; application rate 320 g/ha): 100%; pre-emergence activity against ABUTH (ABUTH [10]): 90%; pre-emergence activity against ABUTH (ABUTH [11]): 90%; pre-emergence activity against VERPE (VERPE [18]): 90%; pre-emergence activity against KCHSC (KCHSC): 90%; pre-emergence activity against LOLRI (LOLRI [19]; application rate 320 g/ha): 100%; pre-emergence activity against TRZAS (TRZAS [20]): 0%; post-emergence activity against ALOMY (ALOMY [23]): 80%; pre-emergence activity against ECHCG (ECHCG [26]): 100%; pre-emergence activity against AMARE (AMARE): 90%; post-emergence activity against ECHCG (ECHCG [30]): 90%; pre-emergence activity against POLCO (POLCO): 90%; pre-emergence activity against MATIN (MATIN [33]): 90%; pre-emergence activity against BRSNW (BRSNW [34]): 20%
O=C1N(Cc2ccccc2Cl)CCC12CCCN(Cc1c(F)cccc1F)C2=O (racemic) [I-045] | 80 | 0 | 100 | 90 | 0 | 100 | 90 | 0 | 90 | 0 | 90 | 90 | 90 | 90 | 0 | 80 | 80 | 0 | 90 | 90 | pre-emergence activity against SETVI (SETVI [6]; application rate 320 g/ha): 100%; pre-emergence activity against MATIN (MATIN [8]; application rate 1280 g/ha): 90%; pre-emergence activity against SETVI (SETVI [9]; application rate 1280 g/ha): 100%; post-emergence activity against GLXMA (GLXMA [35]): 0%; pre-emergence activity against LOLRI (LOLRI [19]; application rate 1280 g/ha): 100%; post-emergence activity against VERPE (VERPE [36]): 80%; post-emergence activity against POAAN (POAAN [37]): 90%; pre-emergence activity against BRSNW (BRSNW [34]): 0%
